# Assay results: US20080269170A1, “Novel 2,4-Dianilinopyrimidine Derivatives, the Preparation Thereof, Their Use as Medicaments, Pharmaceutical Compositions and, in Particular, as IKK Inhibitors” (sanofi-aventis, priority 2005, published 2008)
# Structures can show the parent of a compound that is named as a salt.
row,melting point [°C],Structure (SMILES)
1,189,"CNC1CCC(N(CCN2CCCC2)S(=O)(=O)c2ccc(Nc3nccc(Nc4ccc(F)cc4)n3)cc2)CC1 (stereo not drawn) [Example 146, 4-({4-[(4-Fluorophenyl)amino]pyrimidin-2-yl}amino)-N-(4-cis(methylamino)cyclohexyl)-N-(2-pyrrolidin-1-ylethyl)benzenesulfonamide]"
2,187,"C#CCN(C1CCN(C)CC1)S(=O)(=O)c1ccc(Nc2nccc(Nc3ccc(F)cc3)n2)cc1 [Example 148, 4-({4-[(4-Fluorophenyl)amino]pyrimidin-2-yl}amino)-N-propargyl-N-(1-methylpiperidin-4-yl)-benzenesulfonamide]"
3,149 to 152,"CN(C1CCN(Cc2cccn2C)CC1)S(=O)(=O)c1ccc(Nc2nccc(Nc3ccc(F)c(F)c3)n2)cc1 [Example 164, 4-({4-[(3,4-Difluorophenyl)amino]pyrimidin-2-yl}amino)-N-methyl-N-{1-[(1-methyl-1H-pyrrol-2-yl)methyl]piperidin-4-yl)benzenesulfonamide]"
4,188,"Cc1cc(Nc2ccnc(Nc3ccc(S(=O)(=O)N(C)C4CCCN(C)C4)cc3)n2)ccc1F (stereo not drawn) [Example 139, 4-({4-[(4-Fluoro-3-methylphenyl)amino]-pyrimidin-2-yl}amino)-N-methyl-N-(1-methylpiperidin-3-yl)benzenesulfonamide]"
5,222,"CN(C)C1CCC(N(C)S(=O)(=O)c2ccc(Nc3nccc(Nc4ccc(F)cc4)n3)cc2)CC1 (stereo not drawn) [Example 140, 4-({4-[(4-Fluorophenyl)amino]pyrimidin-2-yl}amino)-N-methyl-N-[4-cis(dimethylamino)cyclohexyl]-benzenesulfonamide]"
6,234 to 235,"CN(C1CCN(CC(C)(C)O)CC1)S(=O)(=O)c1ccc(Nc2nccc(Nc3ccc(F)c(F)c3)n2)cc1 [Example 167, 4-[4-(3,4-Difluorophenylamino)pyrimidin-2-ylamino]-N-[1-(2-hydroxy-2-methylpropyl)piperidin-4-yl]-N-methylbenzenesulfonamide]"
7,139,COc1cc(Nc2ccnc(Nc3ccc(S(=O)(=O)N(CCN4CCCC4)C4CCN(C5CC5)CC4)cc3)n2)ccc1F [Example 156]
8,172 to 173,"Cc1cc(CN2CCC(N(C)S(=O)(=O)c3ccc(Nc4nccc(Nc5ccc(F)c(C)c5)n4)cc3)CC2)no1 [Example 138, 4-({4-[(4-Fluoro-3-methylphenyl)amino]-pyrimidin-2-yl}amino)-N-methyl-N-{1-[(5-methylisoxazol-3-yl)methyl]piperidin-4-yl}benzenesulfonamide]"
9,204,"CN(C1CCN(CCS(C)(=O)=O)CC1)S(=O)(=O)c1ccc(Nc2nccc(Nc3ccc(F)c(F)c3)n2)cc1 [Example 163, 4-({4-[(3,4-Difluorophenyl)amino]pyrimidin-2-yl}amino)-N-methyl-N-{1-[2-(methyl-sulfonyl)ethyl]piperidin-4-yl}benzenesulfonamide]"
10,171,"CSCCNC1CCC(N(C)S(=O)(=O)c2ccc(Nc3nccc(Nc4ccc(F)cc4)n3)cc2)CC1 (stereo not drawn) [Example 145, 4-({4-[(4-Fluorophenyl)amino]pyrimidin-2-yl}amino)-N-methyl-N-[4-trans(2-methylsulfanylethyl-amino)cyclohexyl]benzenesulfonamide]"
11,189,Cc1cc(Nc2ccnc(Nc3ccc(S(=O)(=O)N(CC4CCCO4)C4CCC(=O)CC4)cc3)n2)ccc1F (stereo not drawn) [Example 169]
12,146,"CSCCNC1CCC(N(C)S(=O)(=O)c2ccc(Nc3nccc(Nc4ccc(F)cc4)n3)cc2)CC1 (stereo not drawn) [Example 144, 4-({4-[(4-Fluorophenyl)amino]pyrimidin-2-yl}amino)-N-methyl-N-[4-cis(2-methylsulfanylethyl-amino)cyclohexyl]benzenesulfonamide]"

# The remaining lines, values behind:
row,Structure (SMILES),melting point [°C]
1,O=S(=O)(c1ccc(Nc2nccc(Nc3ccc(F)cc3)n2)cc1)N(CCN1CCCC1)C1CCNCC1 (as salt: hydrochloride),200
2,"CN(C1CCN(Cc2cccs2)CC1)S(=O)(=O)c1ccc(Nc2nccc(Nc3ccc(F)cc3)n2)cc1 [Example 13, 4-[4-(4-Fluorophenylamino)pyrimidin-2-ylamino]-N-methyl-N-(1-thiophen-2-ylmethylpiperidin-4-yl)benzenesulfonamide]",175 to 176
3,CN1CCC(N(CCN)S(=O)(=O)c2ccc(Nc3nccc(Nc4ccc(F)cc4)n3)cc2)CC1 (as salt: hydrochloride),225
4,"Cc1cc(Nc2ccnc(Nc3ccc(S(=O)(=O)N(C)C4CCN(Cc5cnn(C)c5)CC4)cc3)n2)ccc1F [Example 135, 4-({4-[(4-Fluoro-3-methylphenyl)amino]-pyrimidin-2-yl}amino)-N-methyl-N-{1-[(1-methyl-1H-pyrazol-4-yl)methyl]piperidin-4-yl}benzenesulfonamide]",125 to 150
5,"CN(C1CCN(Cc2ccc(F)cc2)CC1)S(=O)(=O)c1ccc(Nc2nccc(Nc3ccc(F)cc3)n2)cc1 [Example 33, N-[1-(4-Fluorobenzyl)piperidin-4-yl]-4-[4-(4-fluorophenylamino)pyrimidin-2-ylamino]-N-methyl-benzenesulfonamide]",129 to 131
6,"CC(C)N1CCC(N(C)S(=O)(=O)c2ccc(Nc3nccc(Nc4ccc(F)cc4)n3)cc2)CC1 [Example 37, 4-[4-(4-Fluorophenylamino)pyrimidin-2-yl-amino]-N-(1-isopropylpiperidin-4-yl)-N-methylbenzene-sulfonamide]",202 to 203
7,"Cc1cc(Nc2ccnc(Nc3ccc(S(=O)(=O)N(C)C4CCN(Cc5nccs5)CC4)cc3)n2)ccc1F [Example 131, 4-({4-[(4-Fluoro-3-methylphenyl)amino]-pyrimidin-2-yl}amino)-N-methyl-N-{1-[(1-thiazol-2-yl)-methyl]piperidin-4-yl}benzenesulfonamide]",176 to 177
8,"Cc1cc(Nc2ccnc(Nc3ccc(S(=O)(=O)N(C)C4CCN(C)CC4)cc3)n2)ccc1F [Example 86, 4-({4-[(4-fluoro-3-methylphenyl)amino]-pyrimidin-2-yl}amino)-N-methyl-N-(1-methylpiperidin-4-yl)benzenesulfonamide]",110 to 120
9,"CN1CCC(N(C)S(=O)(=O)c2ccc(Nc3nccc(Nc4ccc(F)cc4)n3)cc2)C1 (stereo not drawn) [Example 5, 4-[4-(4-Fluorophenylamino)pyrimidin-2-yl-amino]-N-methyl-N-(1-methylpyrrolidin-3-yl)benzene-sulfonamide]",177 to 181
10,CCOP(=O)(CCN1CCC(N(CCCN)S(=O)(=O)c2ccc(Nc3nccc(Nc4ccc(F)c(F)c4)n3)cc2)CC1)OCC,94 to 96
11,"Cc1cc(Nc2ccnc(Nc3ccc(S(=O)(=O)N(CCN)C4CCN(C)CC4)cc3)n2)ccc1F (as salt: hydrochloride) [Example 95, N-(2-Aminoethyl)-4-({4-[(4-fluoro-3-methyl-phenyl)amino]pyrimidin-2-yl}amino)-N-(1-methylpiperidin-4-yl)benzenesulfonamide hydrochloride]",220
12,"CN(C1CCSCC1)S(=O)(=O)c1ccc(Nc2nccc(Nc3ccc(F)cc3)n2)cc1 [Example 113, 4-({4-[(4-Fluorophenyl)amino]pyrimidin-2-yl}amino)-N-methyl-N-(tetrahydro-2H-thiopyran-4-yl)-benzenesulfonamide]",181.5
13,CN(C1CCNCC1)S(=O)(=O)c1ccc(Nc2nccc(Nc3ccc(F)c(F)c3)n2)cc1 (as salt: hydrochloride),275
14,"CN(C1CCNCC1)S(=O)(=O)c1ccc(Nc2nccc(Nc3ccc(F)cc3)n2)cc1 (as salt: hydrochloride) [Example 8, 4-[4-(4-Fluorophenylamino)pyrimidin-2-ylamino]-N-methyl-N-piperidin-4-yl-benzenesulfonamide]",205 to 210
15,"CN1CCC(N(C)C(=O)CNS(=O)(=O)c2ccc(Nc3nccc(Nc4ccc(F)cc4)n3)cc2)CC1 [Example 25, 2-{4-[4-(4-Fluorophenylamino)pyrimidin-2-ylamino]benzenesulfonylamino}-N-methyl-N-(1-methyl-piperidin-4-yl)acetamide]",233 to 234.4
16,"CCN(C1CCN(Cc2ccccc2)C1)S(=O)(=O)c1ccc(Nc2nccc(Nc3ccc(F)cc3)n2)cc1 (stereo not drawn) [Example 15, N-(1-Benzylpyrrolidin-3-yl)-4-[4-(4-fluoro-phenylamino)pyrimidin-2-ylamino]-N-ethylbenzene-sulfonamide]",125 to 127
17,"CN1CCC(N(C2CC2)S(=O)(=O)c2ccc(Nc3nccc(Nc4ccc(F)cc4)n3)cc2)CC1 [Example 14, N-Cyclopropyl-4-[4-(4-fluorophenylamino)-pyrimidin-2-ylamino]-N-(1-methylpiperidin-4-yl)benzene-sulfonamide]",218
18,"CC(C)CN1CCC(N(C)S(=O)(=O)c2ccc(Nc3nccc(Nc4ccc(F)cc4)n3)cc2)CC1 [Example 38, 4-[4-(4-Fluorophenylamino)pyrimidin-2-yl-amino]-N-(1-isobutylpiperidin-4-yl)-N-methylbenzene-sulfonamide]",194 to 195
19,"Cc1cc(Nc2ccnc(Nc3ccc(S(=O)(=O)N(CCN4CCCC4)C4CCN(C)CC4)cc3)n2)ccc1F [Example 87, 4-({4-[(4-Fluoro-3-methylphenyl)amino]-pyrimidin-2-yl}amino)-N-(1-methylpiperidin-4-yl)-N-(2-pyrrolidin-1-ylethyl)benzenesulfonamide]",93 to 103
20,"Cc1cc(Nc2ccnc(Nc3ccc(S(=O)(=O)N(C)C4CCC(F)(F)CC4)cc3)n2)ccc1F [Example 137, N-(4,4-Difluorocyclohexyl)-4-[4-(4-fluoro-3-methylphenylamino)pyrimidin-2-ylamino]-N-methyl-benzenesulfonamide]",164 to 165
21,"CN(C1CCN(CCC(F)(F)F)CC1)S(=O)(=O)c1ccc(Nc2nccc(Nc3ccc(F)c(F)c3)n2)cc1 [Example 109, 4-({4-[(3,4-Difluorophenyl)amino]pyrimidin-2-yl}amino)-N-methyl-N-[1-(3,3,3-trifluoro-propyl)piperidin-4-yl]benzenesulfonamide]",202 to 203
